Measurements reported in patent US12325697B2 (Nimbus Clio, Inc., priority 2021, dated 2025).

Columns and labels:
[1] = target: Recombinant human Cbl-b (aa 36-427) (Homo sapiens (Human), UniProt Q13191); assay: Cbl-b Biochemical Assay (TR-FRET); settings: read-out: TR-FRET hCbl-b IC50
Outline: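 IC50 from 4-parameter fit of % inhibition (DMSO max, reference-inhibitor min), duplicate ten-point series. Compound preincubated with 6 nM Cbl-b, then Src-Zap70 (1-2.5 nM)/0.5 mM ATP reaction 60 min RT; EDTA quench with labelled UBE2D2-Ub and streptavidin-terbium, 60 min, HTRF at 520 nm.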

[2] = target: Recombinant human c-Cbl (aa 47-435) (Homo sapiens (Human), UniProt P22681); assay: c-Cbl Biochemical Assay (TR-FRET)
Sequence of Recombinant human c-Cbl (aa 47-435) (P22681 47-435): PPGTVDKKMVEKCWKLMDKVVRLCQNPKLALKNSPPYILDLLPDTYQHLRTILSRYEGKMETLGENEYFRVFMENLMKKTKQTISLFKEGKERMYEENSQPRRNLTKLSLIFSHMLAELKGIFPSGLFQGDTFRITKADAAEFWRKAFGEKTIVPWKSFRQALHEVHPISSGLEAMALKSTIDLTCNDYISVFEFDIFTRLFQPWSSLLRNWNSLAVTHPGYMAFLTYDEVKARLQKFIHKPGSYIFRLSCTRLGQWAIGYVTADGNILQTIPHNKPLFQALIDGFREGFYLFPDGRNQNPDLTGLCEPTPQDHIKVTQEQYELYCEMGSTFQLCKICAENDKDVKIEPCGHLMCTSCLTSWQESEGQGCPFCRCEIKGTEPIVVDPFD
Description: Recombinant human c-Cbl (aa 47-435) was expressed in E. coli, purified and biotinylated in vitro. The protein was diluted to 12 nM in freshly prepared assay buffer consisting of 50 mM HEPES, pH 7.0, 100 mM NaCl, 5 mM MgCl2, 0.01% Triton-X 100, 0.01% BSA and 1 mM DTT. Recombinant human Src (aa 254-536)-[…]-Zap-70 (aa 281-297) fusion protein was expressed in E. coli and purified. Protein was diluted in assay buffer to 5-20 nM and ATP was added to 1 mM. Recombinant human UBE2D2([…]) was expressed in E. coli, purified and ubiquitinated and Bodipy labelled in vitro. Protein was diluted to 200 nM in assay buffer without MgCl2 (or Cisbio PPI buffer). Streptavidin-Terbium was added to 2 nM and EDTA to 10 mM, to provide a binding assay mix. Compounds were dissolved in DMSO and diluted to prepare a ten-point half log dilution series. 100 nl of each compound concentration was dispensed in duplicate in a 384 well black assay plate using acoustic dispensing. Wells for maximum signal controls received 100 nl of DMSO only and wells for minimum controls received 100 nl of a reference inhibitor compound at a final assay concentration of […] to produce 100% inhibition. 5 μl of diluted c-cbl enzyme was added to all wells of the assay plate and incubated at RT for 30 min. The enzyme assay was initiated by addition of 5 μl of Src-Zap/ATP mix to all wells, and the plate incubated at RT for 60-90 min. The enzyme reaction was terminated and the binding reaction was initiated by adding 10 μl of binding assay mix to all wells and incubating the plate at RT for 60 min prior to assay read. Final assay conditions consisted of 6 nM c-cbl, 2.5-10 nM Src-Zap70, 0.5 mM ATP, 1% (v/v) DMSO (enzyme reaction) and 100 nM UBE2D2([…])-Ub-FL-BODIPY, 5 mM EDTA, 1 nM Streptavidin-Tb (binding reaction). The HTRF assay signal was measured at 520 nm on an Envision plate reader, with reference signal at 485 or 620 nm. Data was normalized using maximum and minimum assay controls: % Inhibition=100-(100*((maximum control)-unknown)/(maximum control-minimum control)). A 4-parameter dose-response equation was used to fit the normalized dose-response data and derive an IC50 for test compounds.

Sequence of Recombinant human Cbl-b (aa 36-427) (Q13191 36-427): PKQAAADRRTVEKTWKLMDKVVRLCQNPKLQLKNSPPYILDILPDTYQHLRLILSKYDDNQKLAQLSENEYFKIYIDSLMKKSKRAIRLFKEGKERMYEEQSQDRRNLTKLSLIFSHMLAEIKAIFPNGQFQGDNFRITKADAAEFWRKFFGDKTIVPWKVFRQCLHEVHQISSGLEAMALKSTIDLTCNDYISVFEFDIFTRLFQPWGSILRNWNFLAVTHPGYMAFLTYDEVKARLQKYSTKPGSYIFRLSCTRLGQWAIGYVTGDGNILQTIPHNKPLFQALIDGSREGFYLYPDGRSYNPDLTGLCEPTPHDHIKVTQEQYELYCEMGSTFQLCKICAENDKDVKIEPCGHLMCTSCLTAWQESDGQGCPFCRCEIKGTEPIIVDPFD

Compound	IC50 [1] [nM]	IC50 [2] [nM]
Cn1cnnc1-c1cc(C#N)ccc1-c1cc(C2CC2)nc(N2Cc3c(F)cc(CN4CC[C@H]5OCC[C@H]54)cc3C2=O)c1 (stereo in doubt) [ANF-11, 4-[2-Cyclopropyl-6-(4-fluoro-6-{hexahydrofuro[3,2-b]pyrrol-4-ylmethyl}-1-oxo-3H-isoindol-2-yl)pyridin-4-yl]-3-(4-methyl-1,2,4-triazol-3-yl)benzonitrile]	≤ 200	≤ 200
Cn1cnnc1-c1cc(C#N)ccc1-c1cc(C2CC2)nc(N2Cc3ccc(CNC4CCOC4)cc3C2=O)c1 (stereo in doubt) [ANP-2, 4-[2-Cyclopropyl-6-(1-oxo-6-{[(3S)-oxolan-3-ylamino]methyl}-3H-isoindol-2-yl)pyridin-4-yl]-3-(4-methyl-1,2,4-triazol-3-yl)benzonitrile]	≤ 200	≤ 200
Cn1cnnc1-c1cc(C#N)ccc1-c1cc(C2CC2)nc(N2Cc3c(F)cc(CN[C@]4(C)COC[C@@H]4O)cc3C2=O)c1 (stereo in doubt) [AOF-9, 4-[2-Cyclopropyl-6-(4-fluoro-6-{[(4-hydroxy-3-methyloxolan-3-yl)amino]methyl}-1-oxo-3H-isoindol-2-yl)pyridin-4-yl]-3-(4-methyl-1,2,4-triazol-3-yl)benzonitrile]	< 200	< 200
Cn1cnnc1-c1cc(C#N)ccc1-c1cc(C2CC2)nc(N2Cc3c(F)cc(CN[C@@]4(C)COC[C@H]4O)cc3C2=O)c1 (stereo in doubt) [AOG-1, 4-[2-Cyclopropyl-6-(4-fluoro-6-{[(4-hydroxy-3-methyloxolan-3-yl)amino]methyl}-1-oxo-3H-isoindol-2-yl)pyridin-4-yl]-3-(4-methyl-1,2,4-triazol-3-yl)benzonitrile]	≤ 200	≤ 200
Cn1cnnc1-c1cc(C#N)ccc1-c1cc(C2CC2)nc(N2Cc3ccc([C@H]4COC[C@@H](C5CCC5)N4)cc3C2=O)c1 (stereo in doubt) [AOP-4, rac-4-(2-{6-[(3R,5S)-5-Cyclobutylmorpholin-3-yl]-1-oxo-3H-isoindol-2-yl}-6-cyclopropylpyridin-4-yl)-3-(4-methyl-1,2,4-triazol-3-yl)benzonitrile]	≤ 200	≤ 200
Cn1cnnc1-c1cc(C#N)ccc1-c1cc(C2CC2)nc(N2Cc3ccc([C@@H]4COC[C@H](C5CCC5)N4)cc3C2=O)c1 (stereo in doubt) [AOQ-1, rel-4-(2-{6-[(3R,5S)-5-Cyclobutylmorpholin-3-yl]-1-oxo-3H-isoindol-2-yl}-6-cyclopropylpyridin-4-yl)-3-(4-methyl-1,2,4-triazol-3-yl)benzonitrile]	≤ 200	≤ 200
Cn1cnnc1-c1cc(C#N)ccc1-c1cc(C2CC2)nc(N2Cc3ccc([C@H]4COC[C@@H](C5CCC5)N4)cc3C2=O)c1 (stereo in doubt) [AOR-1, rel-4-(2-{6-[(3R,5S)-5-Cyclobutylmorpholin-3-yl]-1-oxo-3H-isoindol-2-yl}-6-cyclopropylpyridin-4-yl)-3-(4-methyl-1,2,4-triazol-3-yl)benzonitrile]	≤ 200	≤ 200
Cn1cnnc1-c1cc(C#N)ccc1-c1cc(C2CC2)nc(N2Cc3c(F)cc(CN4CC[C@H]5COC[C@@H]54)cc3C2=O)c1 (stereo in doubt) [AOT-2, 4-(2-Cyclopropyl-6-(4-fluoro-6-((hexahydro-1H-furo[3,4-b]pyrrol-1-yl)methyl)-1-oxoisoindolin-2-yl)pyridin-4-yl)-3-(4-methyl-4H-1,2,4-triazol-3-yl)benzonitrile]	≤ 200	≤ 200
CCNc1cnc(N2Cc3c(cc(CO)cc3C(F)(F)F)C2=O)cc1-c1ccc(F)cc1-c1nncn1C [AHN-9, 2-(5-(Ethylamino)-4-(4-fluoro-2-(4-methyl-4H-1,2,4-triazol-3-yl)phenyl)pyridin-2-yl)-6-(hydroxymethyl)-4-(trifluoromethyl)isoindolin-1-one]	10000 to 50000	10000 to 50000
CN1CCC[C@@H]1COCc1cc2c(c(C(F)(F)F)c1)CN(c1cc(-c3ccc(F)cc3-c3nncn3C)cc(C3CC3)n1)C2=O [AHO-4, 2-{6-Cyclopropyl-4-[4-fluoro-2-(4-methyl-1,2,4-triazol-3-yl)phenyl]pyridin-2-yl}-6-({[(2R)-1-methylpyrrolidin-2-yl]methoxy}methyl)-4-(trifluoromethyl)-3H-isoindol-1-one]	≤ 200	≤ 200
Cn1cnnc1-c1cc(C#N)ccc1-c1cc(C2CC2)nc(N2Cc3c(cc(COCC4(O)CCC4)cc3C(F)(F)F)C2=O)c1 [AHP-1, 4-(2-Cyclopropyl-6-(6-(((1-hydroxycyclobutyl)methoxy)methyl)-1-oxo-4-(trifluoromethyl)isoindolin-2-yl)pyridin-4-yl)-3-(4-methyl-4H-1,2,4-triazol-3-yl)benzonitrile]	≤ 200	≤ 200
CCOc1cc(-c2ccc(F)cc2-c2nncn2C)cc(N2Cc3c(cc(COCCO)cc3C(F)(F)F)C2=O)n1 [AHQ-4, 2-(6-Ethoxy-4-(4-fluoro-2-(4-methyl-4H-1,2,4-triazol-3-yl)phenyl)pyridin-2-yl)-6-((2-hydroxyethoxy)methyl)-4-(trifluoromethyl)isoindolin-1-one]	≤ 200	≤ 200
CN1CCC[C@H]1COCc1cc2c(c(C(F)(F)F)c1)CN(c1cc(-c3ccc(F)cc3-c3nncn3C)cc(C3CC3)n1)C2=O [AHR-4, (S)-2-(6-Cyclopropyl-4-(4-fluoro-2-(4-methyl-4H-1,2,4-triazol-3-yl)phenyl)pyridin-2-yl)-6-(((1-methylpyrrolidin-2-yl)methoxy)methyl)-4-(trifluoromethyl)isoindolin-1-one]	≤ 200	≤ 200
CCOc1cc(-c2ccc(C#N)cc2-c2nncn2C)cc(N2Cc3ccc(CNCCOC)cc3C2=O)n1 [AHS-2, 4-(2-Ethoxy-6-(6-(((2-methoxyethyl)amino)methyl)-1-oxoisoindolin-2-yl)pyridin-4-yl)-3-(4-methyl-4H-1,2,4-triazol-3-yl)benzonitrile]	≤ 200	≤ 200
CCOc1cc(-c2ccc(Cl)cc2-c2nncn2C)cc(N2Cc3ccc(CNCC4(O)CCC4)cc3C2=O)n1 [AHT-2, 2-(4-(4-Chloro-2-(4-methyl-4H-1,2,4-triazol-3-yl)phenyl)-6-ethoxypyridin-2-yl)-6-((((1-hydroxycyclobutyl)methyl)amino)methyl)isoindolin-1-one]	≤ 200	≤ 200
C#CCOc1ccc(-c2cc(NCC)nc(N3Cc4c(cccc4C(F)(F)F)C3=O)c2)c(-c2nncn2C)c1 [AHU-12, 2-[6-(Ethylamino)-4-[2-(4-methyl-1,2,4-triazol-3-yl)-4-(prop-2-yn-1-yloxy)phenyl]pyridin-2-yl]-4-(trifluoromethyl)-3H-isoindol-1-one]	≤ 200	200 to 1000
Cn1cnnc1-c1cc(C#N)ccc1-c1cc(C2CC2)nc(N2Cc3ccc(CO)cc3C2=O)c1 [AHV-1, 4-{2-Cyclopropyl-6-[6-(hydroxymethyl)-1-oxo-3H-isoindol-2-yl]pyridin-4-yl}-3-(4-methyl-1,2,4-triazol-3-yl)benzonitrile]	≤ 200	≤ 200
CCOc1cc(-c2ccc(Cl)cc2-c2nncn2C)cc(N2Cc3c(cc(CNCC4(O)CCC4)cc3C(F)(F)F)C2=O)n1 [AHW-1, 2-{4-[4-Chloro-2-(4-methyl-1,2,4-triazol-3-yl)phenyl]-6-ethoxypyridin-2-yl}-6-({[(1-hydroxycyclobutyl)methyl]amino}methyl)-4-(trifluoromethyl)-3H-isoindol-1-one]	≤ 200	≤ 200
Cn1cnnc1-c1cc(F)ccc1-c1cc(C2CC2)nc(N2Cc3c(cc(COCCO)cc3C(F)(F)F)C2=O)c1 [AHX-2, 2-(6-Cyclopropyl-4-(4-fluoro-2-(4-methyl-4H-1,2,4-triazol-3-yl)phenyl)pyridin-2-yl)-6-((2-hydroxyethoxy)methyl)-4-(trifluoromethyl)isoindolin-1-one]	≤ 200	≤ 200
Cn1cnnc1-c1ccccc1-c1cc(N2Cc3c(cccc3C(F)(F)F)C2=O)cc2cc[nH]c12 [AHY-5, 2-{7-[2-(4-Methyl-1,2,4-triazol-3-yl)phenyl]-1H-indol-5-yl}-4-(trifluoromethyl)-3H-isoindol-1-one]	10000 to 50000	10000 to 50000
